The text below walks through data of patent US9200269B2, “β-glucuronidase inhibitor” (priority 2007, dated 2015).

Read-outs that look alike come from different tables or passages of the source.

For this experiment, the target named is T1, β-glucuronidase Type VII-A derived from Escherichia coli (Escherichia coli, UniProt P05804).
T1 construct: purchased Sigma-Aldrich Corporation
As to the kind of experiment: Inhibition of β-glucuronidase activity (PNPG substrate, absorbance at 400 nm). The class given is biochemical. Conditions: for Inhibition rate (%) Concentration 0.001%: 0.001 wt % in reaction solution. The protocol: 100 μL of a 2 mM PNPG aqueous solution, 40 μL of a 0.5 M phosphate buffer (pH 6.8), 38 μL of ion exchanged water and 2 μL of a 10 or 1 wt % dipropylene glycol (DPG) solution of various compounds or plant extracts were mixed in a bottle γ-ray sterilized in advance, and subsequently 20 μL of a β-glucuronidase aqueous solution adjusted to 16 units/mL was added, in order to allow the enzyme to react in a thermostat bath at 37° C. for 2 hours. Further, in the case of some of compounds, in addition to the above steps, the same experiment was performed using a 0.1 wt % DPG solution as well. As a result, the concentrations of the test compounds and plant extracts in the reaction solution were adjusted to 0.1, 0.01 and 0.001 wt %, respectively. Further, a product prepared by adding DPG in place of the above-mentioned compounds and plant extracts was used as a control, and a product prepared by adding ion exchanged water in place of an enzyme solution was used as a blank for each sample and control, and the respective products were allowed to react for 2 hours in the same manner. It should be noted that the plant extract sample was used as a solvent extract.
The above-mentioned reaction solution was diluted with a 0.2 M glycine buffer (pH 10.4) and measured for its absorbance at a wavelength of 400 nm. The relative activity inhibition rate of a β-glucuronidase was determined by using the obtained measurement value in accordance with the following equation. Absorbance change of control=Absorbance of control−Absorbance of blank for each control Absorbance change of sample=Absorbance of sample−Absorbance of blank for each sample Activity inhibition rate (%)=[(Absorbance change of control−Absorbance change of sample)/Absorbance change of control]×100

[1] abbreviates: 1.6 units/mL enzyme, 37° C., 2 hours, pH 6.8.
[2] abbreviates: 0.01 wt % in reaction solution, 1.6 units/mL enzyme, 37° C., 2 hours, pH 6.8.
The mark [3] stands for this setting: 0.1 wt % in reaction solution, 1.6 units/mL enzyme, 37° C., 2 hours, pH 6.8.
Where [4] appears, read: 0.01 wt % in reaction solution, 1.6 units/mL enzyme, 37° C., 2 hours, pH 6.8, read-out: Inhibition rate (%) Concentration 0.01%.
[5] abbreviates: 0.1 wt % in reaction solution, 1.6 units/mL enzyme, 37° C., 2 hours, pH 6.8, read-out: Inhibition rate (%) Concentration 0.1%.
Where [6] appears, read: 2 h, pH 6.8, read-out: Inhibition rate (%) Concentration 0.01%.
[7] abbreviates: 2 h, pH 6.8, read-out: Inhibition rate (%) Concentration 0.1%.

T1 sequence (P05804 whole entry): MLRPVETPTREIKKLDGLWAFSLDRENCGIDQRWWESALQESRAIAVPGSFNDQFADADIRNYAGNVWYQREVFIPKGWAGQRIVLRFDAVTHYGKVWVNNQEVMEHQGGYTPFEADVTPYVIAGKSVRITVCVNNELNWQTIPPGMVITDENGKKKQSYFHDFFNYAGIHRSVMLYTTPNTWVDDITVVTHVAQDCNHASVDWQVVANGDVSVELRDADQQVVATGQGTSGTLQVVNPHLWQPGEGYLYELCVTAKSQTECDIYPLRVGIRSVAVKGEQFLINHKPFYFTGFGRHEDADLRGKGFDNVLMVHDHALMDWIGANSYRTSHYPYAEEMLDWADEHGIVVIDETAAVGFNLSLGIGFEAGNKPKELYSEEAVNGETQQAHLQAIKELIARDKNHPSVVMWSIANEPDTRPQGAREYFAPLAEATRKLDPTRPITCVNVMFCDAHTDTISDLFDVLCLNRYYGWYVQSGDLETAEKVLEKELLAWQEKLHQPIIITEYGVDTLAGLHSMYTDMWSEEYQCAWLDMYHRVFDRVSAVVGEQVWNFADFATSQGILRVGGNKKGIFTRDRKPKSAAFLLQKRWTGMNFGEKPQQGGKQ

Regarding 3-methyl-4(5)-cyclopentadecen-1-one, the “Inhibition rate (%) Concentration 0.001%” value under setting [1] is recorded as 92.4%. Besides, under setting [2], the “Inhibition rate (%) Concentration 0.01%” value was found to be 99.1%. In addition, the “Inhibition rate (%) Concentration 0.1%” value under setting [3] is listed as 98.8%.
Regarding `CC1=CC[C@H](C(C)C)C=C1` (racemic) [α-Phellandrene, α-phellandrene], under setting [2], the “Inhibition rate (%) Concentration 0.01%” value worked out at 50.0%. Further, under setting [3], the “Inhibition rate (%) Concentration 0.1%” value came to 93.6%.
Turning to `CCC=CCCC=CC=O` [2,6-Nonadienal, 2,6-nonadienal], the inhibition at 0.01 wt % under setting [4] is 60.9%. The inhibition at 0.1 wt % under setting [5] turned out to be 95.2%.
The like results for `CCCCCCCC1CCCC1=O` (centres unmarked) [2-Heptylcyclopentanone, 2-heptylcyclopentanone] were, in that order, 17.1% and 70.6%.
With `CCCCCCCCCC(C)C=O` (centres unmarked) [2-Methylundecanal, 2-methylundecanal], under setting [4], the inhibition at 0.01 wt % was determined as 57%. For the same compound, the inhibition at 0.1 wt % under setting [5] stood at 62.6%.
Regarding `CCCCCC1=CCCC1=O` [2-Pentylcyclopentenone, 2-pentylcyclopentenone], the “Inhibition rate (%) Concentration 0.01%” value under setting [2] was found to be 93.3%. For the same compound, the “Inhibition rate (%) Concentration 0.1%” value under setting [3] amounted to 97.8%.
Take `CC1CCCCCCCCCCCCC(=O)C1` (centres unmarked) [3-Methylcyclopentadecanone, 3-methylcyclopentadecanone]: the inhibition at 0.01 wt % under setting [4] worked out at 57.3%. For the same compound, under setting [5], the inhibition at 0.1 wt % was found to be 86.4%.
For `O=CCCc1ccccc1` [3-Phenylpropanal, 3-phenylpropanal] the same measures were 23.3% and 81.7%.
For `O=C1CCC=CCCCCCCCCCCO1` [4(5)-Cyclopentadecenolide, 4(5)-cyclopentadecenolide], the “Inhibition rate (%) Concentration 0.01%” value under setting [2] is 47.1%. Under setting [3], the “Inhibition rate (%) Concentration 0.1%” value is on record as 76.5%.
As for `O=C1CCC=CCCCCCCCCCC1` [4-Cyclopentadecen-1-one, 4-cyclopentadecen-1-one], under setting [1], the “Inhibition rate (%) Concentration 0.001%” value came out at 67.2%. Besides, under setting [4], the inhibition at 0.01 wt % was determined as 93.5%. Moreover, the inhibition at 0.1 wt % under setting [5] worked out at 99.1%.
Regarding `O=C1CCCC=CCCCCCCCCCC1` [5-Cyclohexadecen-1-one, 5-cyclohexadecen-1-one], the “Inhibition rate (%) Concentration 0.001%” value under setting [1] was determined as 65.8%. The inhibition at 0.01 wt % under setting [4] is 93.9%. In addition, the inhibition at 0.1 wt % under setting [5] is 98.4%.
For the compound `O=C1CCCCC/C=C\CCCCCCCCO1` [7-Cyclohexadecenolide, 7-cyclohexadecenolide], the “Inhibition rate (%) Concentration 0.001%” value under setting [1] was 88.1%. Moreover, under setting [2], the “Inhibition rate (%) Concentration 0.01%” value was 98.5%. Also, the “Inhibition rate (%) Concentration 0.1%” value under setting [3] was 99.6%.
Take `O=C1CCCCCCCC=CCCCCCCC1` [9-Cycloheptadecen-1-one, 9-cycloheptadecen-1-one]: the “Inhibition rate (%) Concentration 0.001%” value under setting [1] is given as 95.8%. Further, the inhibition at 0.01 wt % under setting [4] is 96.3%. For the same compound, under setting [5], the inhibition at 0.1 wt % came to 100%.
For `O=C1CCCCCCCCOCCCCCCO1` [10-Oxa-16-hexadecanolide, 10-oxa-16-hexadecanolide], under setting [1], the “Inhibition rate (%) Concentration 0.001%” value was found to be 63.0%. Under setting [4], the inhibition at 0.01 wt % was 95.8%. Under setting [5], the inhibition at 0.1 wt % stood at 99.4%.
`O=C1CCCCCCCCCOCCCCCO1` [11-Oxa-16-hexadecanolide, 11-oxa-16-hexadecanolide]: the inhibition at 0.01 wt % under setting [4] was 26.8%. The inhibition at 0.1 wt % under setting [5] is 62.8%.
Consider `COc1ccc(C=O)cc1` [Anisaldehyde, anisaldehyde], for which the inhibition at 0.01 wt % under setting [6] is 15.3%. The inhibition at 0.1 wt % under setting [7] worked out at 85.9%.
Take `Cc1ccc2c(c1)OCC(=O)CO2` [Calone, 7-methyl-3,4-dihydro-(2H)-1,5-benzodioxepin-3-one]: under setting [4], the inhibition at 0.01 wt % amounted to 17.3%. Under setting [5], the inhibition at 0.1 wt % was found to be 73.3%.
The like results for `CC1=CCCC2(C)OC2CCC(C)=CCC1` (centres unmarked) [Cedroxide, 4,8,12-trimethyl-13-oxabicyclo-[10.1.0]trideca-4,8-diene] were, in that order, 40.1% and 82.6%.
In the case of `OC/C=C/c1ccccc1` [Cinnamic alcohol, cinnamic alcohol], the inhibition at 0.01 wt % under setting [6] came out at 56.2%. Besides, the inhibition at 0.1 wt % under setting [7] worked out at 93.5%.
With `O=C/C=C/c1ccccc1` [Cinnamic aldehyde, cinnamic aldehyde], the “Inhibition rate (%) Concentration 0.001%” value under setting [1] was 46.4%. Moreover, under setting [6], the inhibition at 0.01 wt % is 96.8%. Further, the inhibition at 0.1 wt % under setting [7] stood at 100%.
For the compound `CC(=O)OCC=Cc1ccccc1` [Cinnamyl acetate, cinnamyl acetate], the inhibition at 0.01 wt % under setting [4] came to 51.3%. Further, under setting [5], the inhibition at 0.1 wt % was found to be 96.2%.
Regarding `CC(C)=CCCC(C)=CC=O` [Citral, citral], the inhibition at 0.01 wt % under setting [4] was determined as 29.1%. Moreover, the inhibition at 0.1 wt % under setting [5] came to 84.1%.
For `CC(C)=CCCC(C)CCO` (centres unmarked) [Citronellol, citronellol] the same measures were 47.4% and 76.2%.
In the case of `CC(=O)OCCC(C)CCC=C(C)C` (centres unmarked) [Citronellyl acetate, citronellyl acetate], the inhibition at 0.01 wt % under setting [4] stood at 44.8%. Moreover, the inhibition at 0.1 wt % under setting [5] worked out at 84.2%.
Consider `CC(C)=CCCC(C)CC#N` (centres unmarked) [Citronellyl nitrile, citronellyl nitrile], for which the “Inhibition rate (%) Concentration 0.01%” value under setting [2] is on record as 41.8%. Besides, the “Inhibition rate (%) Concentration 0.1%” value under setting [3] was 92.4%.
Take `CC(C)c1ccc(C=O)cc1` [Cuminaldehyde, cuminaldehyde]: the inhibition at 0.01 wt % under setting [4] was found to be 37.8%. In addition, under setting [5], the inhibition at 0.1 wt % was found to be 97.1%.
With `CC(C=O)Cc1ccc(C(C)C)cc1` (centres unmarked) [Cyclamen aldehyde, cyclamen aldehyde], the “Inhibition rate (%) Concentration 0.001%” value under setting [1] is 27.4%. Further, the “Inhibition rate (%) Concentration 0.01%” value under setting [2] is given as 82.7%. Under setting [3], the “Inhibition rate (%) Concentration 0.1%” value is 87.5%.
Take `O=C1CCCCCCCCCCCCCC1` [Cyclopentadecanone, cyclopentadecanone]: under setting [4], the inhibition at 0.01 wt % worked out at 35.6%. Further, the inhibition at 0.1 wt % under setting [5] was determined as 73.3%.
For `O=CCCC=C1CC2CC1C1CCCC21` (centres unmarked) [Dupical, 4-(tricyclo[5.2.1.0^2,6]decylidene-8)butenal], the “Inhibition rate (%) Concentration 0.01%” value under setting [2] is given as 65.5%. For the same compound, the “Inhibition rate (%) Concentration 0.1%” value under setting [3] is listed as 73.5%.
Turning to `C=CCc1ccc(OC)cc1` [Estragole, estragole], under setting [4], the inhibition at 0.01 wt % came out at 94.6%. The inhibition at 0.1 wt % under setting [5] was 99.4%.
On to `CCOc1cc(C=O)ccc1O` [Ethylvanillin, ethylvanillin], for which the inhibition at 0.01 wt % under setting [6] came out at 38.5%. In addition, under setting [7], the inhibition at 0.1 wt % was determined as 78.5%.
In the case of `C=CCc1ccc(O)c(OC)c1` [Eugenol, eugenol], the inhibition at 0.01 wt % under setting [4] was 36.8%. Also, the inhibition at 0.1 wt % under setting [5] stood at 93.2%.
As for `CC(C)=CCC/C(C)=C/CO` [Geraniol, geraniol], the inhibition at 0.01 wt % under setting [4] was 56.8%. Besides, the inhibition at 0.1 wt % under setting [5] was determined as 79.8%.
With `CCC12CCC3C(C)(C)CCCC3(C)C1CCO2` (stereo not drawn) [Grisalva, 6,6,9α-trimethyl-3α-ethyldodecahydronaphtho[2,1-b]furan], the “Inhibition rate (%) Concentration 0.01%” value under setting [2] was found to be 50.4%. Also, under setting [3], the “Inhibition rate (%) Concentration 0.1%” value is listed as 77.3%.
Consider `CC(C=O)Cc1ccc2c(c1)OCO2` (centres unmarked) [Helional, 2-methyl-3-(3,4-methylenedioxyphenyl)-propanal], for which the inhibition at 0.01 wt % under setting [4] was 32.4%. Also, the inhibition at 0.1 wt % under setting [5] stood at 76.4%.
The like results for `CC(CC=O)CCCC(C)(C)O` (centres unmarked) [Hydroxycitronellal, hydroxycitronellal] were, in that order, 24.2% and 85.3%.
On to `CC(=O)C1(C)CC2=C(CCCC2(C)C)CC1C` (centres unmarked) [Iso E Super, 1,2,3,4,5,6,7,8-octahydro-2,3,8,8-tetramethyl-2-acetonaphthone], for which the “Inhibition rate (%) Concentration 0.01%” value under setting [2] was determined as 63.1%. The “Inhibition rate (%) Concentration 0.1%” value under setting [3] stood at 85.9%.
In the case of `CC1=CC(C)C(C=O)CC1` (centres unmarked) [Ligustral, dimethyltetrahydrobenzaldehyde], under setting [2], the “Inhibition rate (%) Concentration 0.01%” value came out at 30.1%. Further, under setting [3], the “Inhibition rate (%) Concentration 0.1%” value turned out to be 76.2%.
`CC(C=O)Cc1ccc(C(C)(C)C)cc1` (centres unmarked) [Lilial, 2-methyl-3-(4-tert-butylphenyl)-propanal]: the inhibition at 0.01 wt % under setting [4] is 60.9%. Further, under setting [5], the inhibition at 0.1 wt % was found to be 72.3%.
For `C=CC(C)(O)CCC=C(C)C` (centres unmarked) [Linalool, linalool] the same measures were 31.7% and 91%.
Regarding `C=CC(C)(CCC=C(C)C)OC(C)=O` (centres unmarked) [Linalyl acetate, linalyl acetate], the inhibition at 0.01 wt % under setting [4] came out at 62.6%. Besides, the inhibition at 0.1 wt % under setting [5] is 95.8%.
With `CC(C)(O)CCCC1=CCC(C=O)CC1` (centres unmarked) [Lyral, 4-(4-hydroxy-4-methylpentyl)-3-cyclohexene-1-carboxyaldehyde], under setting [4], the inhibition at 0.01 wt % turned out to be 51.6%. Also, the inhibition at 0.1 wt % under setting [5] stood at 94.4%.
